Test results taken from patent US20220296599A1, “Pharmaceutical composition comprising histone deacetylase inhibitor and methotrexate” (Chong Kun Dang Pharmaceutical Corp., priority 2018, published 2022).

Assays:
[1] = Analysis of body weights in AIA model; format: in vivo, Lewis rats; conditions: for Body weight (g) 9th day / Body weight (g) 13th day / Body weight (g) 16th day: Mean ± SD; for Body weight (g) 8th day / Body weight (g) 11th day / Body weight (g) 15th day / Body weight (g) 18th day: Table 19 study
Procedure: (§1) Lewis rats (female, five-weeks old) were purchased from Central Lab Animal, Inc. and kept in a controlled environment with a temperature at 22±2° C., a humidity at 44-56% and a light/dark cycle of 12 hours, while being allowed to have a free access to standard diet and water for one week before an examination. Complete Freund's Adjuvant (Chondrex) containing 10 mg/mL of heat killed mycobacteria toxin was fully mixed together, after which […] thereof was taken and subcutaneously injected into each upper tail of the rats to induce arthritis therefrom.
(§2) To administer a drug of compound 374 (SM374) and evaluate an effect thereof, the rats were divided into 11 groups (9, 10 or 11 animals per group) one day before or nine days after inducing arthritis, after which each group was classified according to administered substances (vehicle, compound 374 (SM374) or methotrexate (MTX)) and administration routes (oral administration (P.O.) or intraperitoneal administration (I.P.)) as shown in a following table 13.
(§3) Also, in order to administer a drug of compounds 374, 413, 484, 530 and 652 (SM374, SM413, SM484, SM530 and SM652) and evaluate an effect thereof, the rats were divided into 13 groups (9 or 10 animals per group) eight days after inducing arthritis, and each group was classified according to administered substances (vehicle, SM374, SM413, SM484, SM530, SM652 and MTX) and administration routes (oral or intraperitoneal administration) as shown in a following table 14.
An analysis was made on the body weight of rats dosed with compound 374 (SM 374, once per day) or MIX (once per week or twice per week) from 9th day to 16th day after inducing AIA. […]

[2] = test system: adjuvant-induced arthritis (AIA) model; assay: Clinical score analysis in adjuvant-induced arthritis (AIA) model; format: in vivo, Lewis rats; set-up: Clinical score 9th day / Clinical score 13th day / Clinical score 16th day / Clinical score 11th day / Clinical score 15th day / Clinical score 18th day: scale not given here; conditions: for Clinical score 9th day / Clinical score 13th day / Clinical score 16th day: Mean ± SD; for Clinical score 11th day / Clinical score 15th day / Clinical score 18th day: Mean ± SEM
Procedure: as §1, §2, §3
To identify the efficacy of the inventive composition on preventing or treating arthritis in an AIA model, an analysis was made on the clinical scores of rats dosed with a compound 374 (SM 374, once per day) or MTX (once per week or twice per week) from 9th day to 16th day after inducing arthritis.
Particularly, a degree of swelling, erythema, etc., in each joint of the rats were observed, after which clinical scores were calculated according to a scoring system described in a following table 15, such that the clinical scores on four joints were added up to obtain total scores for each rat (Vishwakarma et al., 2013).
To identify the efficacy of the inventive composition on preventing or treating arthritis in an AIA model, an analysis was made on the clinical scores of rats dosed with compounds 374, 413, 484, 530 and 652 (SM374, SM413, SM484, SM530 and SM652, once per day) or MIX (once per week) from 8th day to 18th day after inducing arthritis.

anti-CCP IgG = assay: Analysis of anti-CCP IgG in plasma in AIA model (QUANTA Lite CCP3 IgG ELISA); format: in vivo, Lewis rats; conditions: Mean ± SD
Procedure: as §1, §2
An effect of compound 374 (SM374) and MTX on preventing or treating arthritis according to administration thereof in combination was evaluated based on analysis of anti-CCP IgG, known as a diagnosis marker for rheumatoid arthritis.
Particularly, blood was collected from each jugular vein of rats dosed with compound 374 (SM374, once per day) and MTX (once or twice per week) from 9th day to 16th day after inducing AIA, after which plasma was isolated therefrom, such that anti-CCP IgG was measured with QUANTA Lite®CCP3 (cyclic citrullinated peptide 3) IgG ELISA kit (INOVA Diagnostics Inc., U.S., catalog no. 704535) according to a protocol offered by a manufacturer thereof, wherein the results thereof are shown in FIG. 5 and Table 20.

[3] = Pharmacokinetic analysis, plasma concentration by LC/MS; format: in vivo; conditions: rats, MTX 1 mg/kg only
Procedure: A bioequivalence was evaluated through a pharmacokinetic test on administration of the inventive compound 374 (SM374) and MTX in combination as well as administration of MTX only.
Particularly, after administration of compound 374 (SM374) and MTX, plasma was isolated from blood collected from rats for each time slot, after which organic solvent was added into such plasma to carry out deproteinization and extraction, such that a resulting sample was subjected to quantitative analysis by means of liquid chromatography and mass spectrometer (LC/MS) along with a calibration sample treated under the same conditions, to measure a concentration of compound 374 (SM374) and MTX (FIG. 6 and Table 21) in plasma of the rats as well as each PK parameter (Table 22).

[4] = SM374 0.1 mg/kg once per day P.O.
[5] = SM374 0.5 mg/kg once per day P.O.
[6] = SM374 1 mg/kg once per day P.O.
[7] = SM374 10 mg/kg once per day P.O.
[8] = compound 10 mg/kg once per day P.O.
[9] = Table 17 study, compound 10 mg/kg once per day P.O., 18th day vs vehicle
[10] = Table 17 study, compound 10 mg/kg once per day P.O.
[11] = MTX 3 mg/kg twice per week I.P.
[12] = Table 17 study, MTX 1 mg/kg once per week I.P.
[13] = Table 17 study, MTX 3 mg/kg once per week I.P.

O=C(NO)c1ccc(CN(C(=O)N2CCOCC2)c2cccc(C(F)(F)F)c2)cc1 [SM374, N-(4-(hydroxycarbamoyl)benzyl)-N-(3-(trifluoromethyl)phenyl)morpholine-4-carboxamide]
Body weight (g) 9th day [1, 4]: 157.3 ± 10.1 g | Body weight (g) 13th day [1, 4]: 151.3 ± 13.3 g | Body weight (g) 16th day [1, 4]: 144.2 ± 10.5 g | Body weight (g) 9th day [1, 5]: 157.3 ± 10.0 g | Body weight (g) 13th day [1, 5]: 153.1 ± 10.8 g | Body weight (g) 16th day [1, 5]: 148.6 ± 9.5 g | Body weight (g) 9th day [1, 6]: 157.3 ± 10.7 g | Body weight (g) 13th day [1, 6]: 156.9 ± 8.9 g | Body weight (g) 16th day [1, 6]: 151.6 ± 11.5 g | Body weight (g) 9th day [1, 7]: 157.3 ± 9.9 g | Body weight (g) 13th day [1, 7]: 151.6 ± 12.2 g | Body weight (g) 16th day [1, 7]: 147.6 ± 9.3 g | Body weight (g) 8th day [1, 8]: 151.3 ± 2.1 g | Body weight (g) 11th day [1, 8]: 153.9 ± 1.5 g | Body weight (g) 15th day [1, 8]: 159.2 ± 1.5 g | Body weight (g) 18th day [1, 8]: 157.6 ± 3.1 g | Rate of reduction in clinical scores (%) ([2]; SM374 0.1 mg/kg once per day P.O., 16th day vs vehicle): 0% | Clinical score 9th day [2, 4]: 0.0 ± 0.0 | Clinical score 13th day [2, 4]: 4.3 ± 2.9 | Clinical score 16th day [2, 4]: 6.9 ± 3.0 | Rate of reduction in clinical scores (%) ([2]; SM374 0.5 mg/kg once per day P.O., 16th day vs vehicle): 2.9% | Clinical score 9th day [2, 5]: 0.0 ± 0.0 | Clinical score 13th day [2, 5]: 2.6 ± 2.3 | Clinical score 16th day [2, 5]: 6.7 ± 4.2 | Rate of reduction in clinical scores (%) ([2]; SM374 1 mg/kg once per day P.O., 16th day vs vehicle): 14.5% | Clinical score 9th day [2, 6]: 0.0 ± 0.0 | Clinical score 13th day [2, 6]: 2.7 ± 3.0 | Clinical score 16th day [2, 6]: 5.9 ± 4.4 | Rate of reduction in clinical scores (%) ([2]; SM374 10 mg/kg once per day P.O., 16th day vs vehicle): −2.9% | Clinical score 9th day [2, 7]: 0.0 ± 0.0 | Clinical score 13th day [2, 7]: 2.9 ± 2.9 | Clinical score 16th day [2, 7]: 7.1 ± 3.1 | Rate of reduction in clinical scores (%) [2, 9]: 21.3% | Clinical score 11th day [2, 10]: 0.0 ± 0.0 | Clinical score 15th day [2, 10]: 1.6 ± 0.7 | Clinical score 18th day [2, 10]: 4.8 ± 1.4 | Anti-CCP IgG (RU) (anti-CCP IgG; SM374 0.5 mg/kg once per day): 216.2 ± 30.0 RU | Anti-CCP IgG (RU) (anti-CCP IgG; SM374 1 mg/kg once per day): 221.8 ± 28.0 RU | Anti-CCP IgG (RU) (anti-CCP IgG; SM374 10 mg/kg once per day): 206.6 ± 32.9 RU

O=C(NO)c1ccc(CN(C(=O)N2CCOCC2)c2ccc(F)cc2F)cc1 [SM413, N-(2,4-difluorophenyl)-N-(4-(hydroxycarbamoyl)benzyl)morpholine-4-carboxamide]
Body weight (g) 8th day [1, 8]: 151.3 ± 2.9 g | Body weight (g) 11th day [1, 8]: 151.4 ± 3.9 g | Body weight (g) 15th day [1, 8]: 157.4 ± 4.2 g | Body weight (g) 18th day [1, 8]: 155.2 ± 4.5 g | Rate of reduction in clinical scores (%) [2, 9]: −3.3% | Clinical score 11th day [2, 10]: 0.0 ± 0.0 | Clinical score 15th day [2, 10]: 3.0 ± 1.4 | Clinical score 18th day [2, 10]: 6.3 ± 1.4

CN(Cc1cnc2nc(N)nc(N)c2n1)c1ccc(C(=O)N[C@@H](CCC(=O)O)C(=O)O)cc1 [MTX, Methotrexate]
AUC(0-inf) ([3]; rat, plasma): 1510 ± 231 ng·h/mL | Cmax ([3]; rat, plasma): 1300 ± 97.3 ng/mL | Tmax ([3]; rat, plasma): 30 min | half-life ([3]; rat, plasma): 54 min | AUC(0-t) ([3]; rat, plasma, read-out: AUC0→8h): 1500 ± 231 ng·h/mL | concentration at 0.5 hr ([3]; rat, plasma, time 0.5 hr): 1300 ± 97.3 ng/mL | concentration at 1 hr ([3]; rat, plasma, time 1 hr): 747 ± 129 ng/mL | concentration at 2 hr ([3]; rat, plasma, time 2 hr): 245 ± 108 ng/mL | concentration at 4 hr ([3]; rat, plasma, time 4 hr): 24.4 ± 9.7 ng/mL | concentration at 8 hr ([3]; rat, plasma, time 8 hr): 3 ± 0.3 ng/mL | Plasma concentration (ng/mL) ([3]; time 0 hr): BLOQ | Body weight (g) 9th day ([1]; MTX 1 mg/kg once per week I.P.): 157.3 ± 11.9 g | Body weight (g) 13th day ([1]; MTX 1 mg/kg once per week I.P.): 160.6 ± 4.2 g | Body weight (g) 16th day ([1]; MTX 1 mg/kg once per week I.P.): 153.8 ± 7.9 g | Body weight (g) 9th day [1, 11]: 157.2 ± 7.3 g | Body weight (g) 13th day [1, 11]: 159.6 ± 5.7 g | Body weight (g) 16th day [1, 11]: 157.6 ± 5.7 g | Body weight (g) 8th day ([1]; MTX 1 mg/kg once per week I.P.): 151.2 ± 2.4 g | Body weight (g) 11th day ([1]; MTX 1 mg/kg once per week I.P.): 152.1 ± 2.3 g | Body weight (g) 15th day ([1]; MTX 1 mg/kg once per week I.P.): 156.9 ± 2.8 g | Body weight (g) 18th day ([1]; MTX 1 mg/kg once per week I.P.): 155.0 ± 3.9 g | Body weight (g) 8th day ([1]; MTX 3 mg/kg once per week I.P.): 151.2 ± 2.4 g | Body weight (g) 11th day ([1]; MTX 3 mg/kg once per week I.P.): 151.6 ± 3.8 g | Body weight (g) 15th day ([1]; MTX 3 mg/kg once per week I.P.): 160.0 ± 2.9 g | Body weight (g) 18th day ([1]; MTX 3 mg/kg once per week I.P.): 164.7 ± 2.5 g | Rate of reduction in clinical scores (%) ([2]; MTX 1 mg/kg once per week I.P., 16th day vs vehicle): 14.5% | Clinical score 9th day ([2]; MTX 1 mg/kg once per week I.P.): 0.0 ± 0.0 | Clinical score 13th day ([2]; MTX 1 mg/kg once per week I.P.): 2.2 ± 1.2 | Clinical score 16th day ([2]; MTX 1 mg/kg once per week I.P.): 5.9 ± 2.8 | Rate of reduction in clinical scores (%) ([2]; MTX 3 mg/kg twice per week I.P., 16th day vs vehicle): 65.2% | Clinical score 9th day [2, 11]: 0.0 ± 0.0 | Clinical score 13th day [2, 11]: 1.1 ± 1.6 | Clinical score 16th day [2, 11]: 2.4 ± 3.0 | Rate of reduction in clinical scores (%) ([2]; Table 17 study, MTX 1 mg/kg once per week I.P., 18th day vs vehicle): 23.0% | Clinical score 11th day [2, 12]: 0.0 ± 0.0 | Clinical score 15th day [2, 12]: 1.3 ± 0.9 | Clinical score 18th day [2, 12]: 4.7 ± 1.9 | Rate of reduction in clinical scores (%) ([2]; Table 17 study, MTX 3 mg/kg once per week I.P., 18th day vs vehicle): 96.7% | Clinical score 11th day [2, 13]: 0.0 ± 0.0 | Clinical score 15th day [2, 13]: 0.0 ± 0.0 | Clinical score 18th day [2, 13]: 0.2 ± 0.2 # | Anti-CCP IgG (RU) (anti-CCP IgG; MTX 1 mg/kg): 208.0 ± 24.3 RU | Anti-CCP IgG (RU) (anti-CCP IgG; MTX 3 mg/kg): 104.6 ± 56.7 RU
